Data from publication PMC6265332, “A scalable peptide-GPCR language for engineering multicellular communication” (Nature Communications, 2018).
Where a SMILES comes first, the peptide text is derived from it.

Tested on: fungal mating GPCRs (Ste2-like, xy.Ste2) expressed in S. cerevisiae strain JTy014
Assay type: cell-based, Ascomycete species of the code; expressed in S. cerevisiae
Details: GPCR of the same code; for Bttm (basal activation) / Span / Top (maximal activation): fit parameter of the dose-response curve, A600-normalised RFP fluorescence, 8 h, triplicate; for Fold Change: fold activation, peptide-treated maximum over water-treated A600-normalised fluorescence; for Hill Slope: four-parameter fit of the dose-response curve (dynamic range)

Compound	Bttm (basal activation)	Span	Top (maximal activation)	Fold Change	Hill Slope
WCYRIGEPCW [Hj, mature mating peptide ligand 1, Hypocrea jecorina]	53.0	376.5	429.5	8.1	0.6
WCGRPGQPC [Bc, mature mating peptide ligand 1, Botrytis cinerea]	28.6	323.3	351.9	12.3	0.7
QWCR---IHGQSCW [Nc, mature mating peptide ligand 1, Neurospora crassa]	27.6	259.2	286.7	10.4	0.6
WCMRPGQPCW [Bb, mature mating peptide ligand 1, Beauvaria bassiana]	25.2	218.9	244.1	9.7	1.0
CC[C@H](C)[C@H](NC(=O)[C@H](Cc1c[nH]c2ccccc12)NC(=O)CN)C(=O)NCC(=O)N[C@@H](CCCNC(=N)N)C(=O)N[C@@H](CS)C(=O)NCC(=O)N[C@H](C(=O)N1CCC[C@H]1C(=O)NCC(=O)N[C@@H](CO)C(=O)N[C@@H](CO)C(=O)N[C@@H](CS)C(=O)O)C(C)C [Bm] (H-GWIGRCGVPGSSC-OH; N-terminus and C-terminus assumed)	30.3	128.4	158.8	5.2	1.2
KPHWTTYGYYEPQ [Cp, mature mating peptide ligand 1, Candida parapsilosis]	36.2	217.8	254.0	7.0	0.8
WCTRPGQGC [Pb, mature mating peptide ligand 1, Paracoccidioides brasiliensis]	20.2	196.9	217.1	10.8	0.5
WCGHIGQGC [Pr, mature mating peptide ligand 1, Penicillium chrysogenum]	27.9	179.4	207.3	7.4	0.6
FCWRPGQPCG [Pd, mature mating peptide ligand 1, Pseudogymnoascus destructans]	28.8	161.2	190.0	6.6	0.7
